Columns and labels:
Assay in all cases: DiscoverX KINOMEscan kinase profiling (468 assays)
Type in all cases: binding
human kinome [1] = biological target: human kinome (Homo sapiens, UniProt Q05397); details: FAK (Entrez PTK2); 100 nM; read-out: Percent Control
How it was run: (§1)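 DNA-tagged kinases competed for immobilized biotinylated ligands on streptavidin magnetic beads, with bound kinase quantified by qPCR. VIP152 in DMSO was tested against a DMSO control.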

human kinome [2] = biological target: human kinome (Homo sapiens, UniProt P08922); details: kinase ROS1 (Entrez ROS1); compound concentration 1000 nM; read-out: Percent Control
How it was run: as §1

human kinome [3] = biological target: human kinome (Homo sapiens, UniProt Q9BZL6); details: read-out: Percent Control
human kinome (Homo sapiens, UniProt Q9BZL6), sequence (Q9BZL6 whole entry): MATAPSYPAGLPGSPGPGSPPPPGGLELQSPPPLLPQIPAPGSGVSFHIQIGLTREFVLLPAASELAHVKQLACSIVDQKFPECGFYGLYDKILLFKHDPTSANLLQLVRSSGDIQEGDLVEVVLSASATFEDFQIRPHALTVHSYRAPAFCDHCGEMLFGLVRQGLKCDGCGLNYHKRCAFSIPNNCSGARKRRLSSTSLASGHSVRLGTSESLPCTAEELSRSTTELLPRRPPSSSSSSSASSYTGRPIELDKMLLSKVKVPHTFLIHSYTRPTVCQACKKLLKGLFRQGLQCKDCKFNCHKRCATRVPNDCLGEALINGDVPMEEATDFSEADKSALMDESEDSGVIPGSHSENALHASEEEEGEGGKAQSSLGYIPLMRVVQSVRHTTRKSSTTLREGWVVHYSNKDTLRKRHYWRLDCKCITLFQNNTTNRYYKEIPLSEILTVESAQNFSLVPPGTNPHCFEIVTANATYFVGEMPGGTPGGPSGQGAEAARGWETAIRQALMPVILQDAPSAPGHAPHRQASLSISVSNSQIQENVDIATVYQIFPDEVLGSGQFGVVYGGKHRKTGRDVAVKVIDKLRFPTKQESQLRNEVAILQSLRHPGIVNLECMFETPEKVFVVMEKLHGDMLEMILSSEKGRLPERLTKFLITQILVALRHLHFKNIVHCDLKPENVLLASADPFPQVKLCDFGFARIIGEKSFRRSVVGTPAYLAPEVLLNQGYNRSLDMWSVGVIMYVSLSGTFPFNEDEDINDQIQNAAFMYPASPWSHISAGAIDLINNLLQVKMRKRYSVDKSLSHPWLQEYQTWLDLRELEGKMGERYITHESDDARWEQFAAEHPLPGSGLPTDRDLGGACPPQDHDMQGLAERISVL
How it was run: as §1

human kinome [4] = biological target: human kinome (Homo sapiens, UniProt O60331); details: read-out: Percent Control
human kinome (Homo sapiens, UniProt O60331), sequence (O60331 whole entry): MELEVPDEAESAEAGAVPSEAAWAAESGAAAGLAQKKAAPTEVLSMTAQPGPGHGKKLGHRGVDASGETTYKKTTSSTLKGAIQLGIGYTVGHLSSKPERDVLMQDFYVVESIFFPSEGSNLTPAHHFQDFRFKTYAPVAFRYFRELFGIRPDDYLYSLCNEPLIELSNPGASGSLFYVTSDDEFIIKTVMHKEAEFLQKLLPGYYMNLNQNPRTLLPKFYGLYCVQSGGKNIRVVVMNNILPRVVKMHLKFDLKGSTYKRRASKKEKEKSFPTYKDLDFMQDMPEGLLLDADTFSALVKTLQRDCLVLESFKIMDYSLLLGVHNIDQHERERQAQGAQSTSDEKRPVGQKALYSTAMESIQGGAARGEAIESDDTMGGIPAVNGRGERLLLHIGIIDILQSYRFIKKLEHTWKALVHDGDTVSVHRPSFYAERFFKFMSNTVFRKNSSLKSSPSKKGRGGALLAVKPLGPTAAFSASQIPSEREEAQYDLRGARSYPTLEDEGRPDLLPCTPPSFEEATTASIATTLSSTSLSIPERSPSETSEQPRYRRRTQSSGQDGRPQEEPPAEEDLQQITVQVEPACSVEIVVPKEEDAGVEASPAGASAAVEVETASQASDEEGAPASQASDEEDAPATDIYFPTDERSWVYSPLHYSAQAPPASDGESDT
How it was run: as §1

human kinome [5] = biological target: human kinome (Homo sapiens, UniProt O43283); details: LZK (Entrez MAP3K13); 100 nM; read-out: Percent Control
How it was run: as §1

human kinome [6] = biological target: human kinome (Homo sapiens, UniProt P21802); details: FGFR2; 100 nM; read-out: Percent Control
How it was run: as §1

human kinome [7] = biological target: human kinome (Homo sapiens, UniProt P37023); details: ACVRL1; 100 nM; read-out: Percent Control
How it was run: as §1

human kinome [8] = biological target: human kinome (Homo sapiens, UniProt Q8TDC3); details: BRSK1; 100 nM; read-out: Percent Control
How it was run: as §1

human kinome [9] = biological target: human kinome (Homo sapiens, UniProt P42680); details: kinase TEC (Entrez TEC); compound concentration 1000 nM; read-out: Percent Control
How it was run: as §1

human kinome [10] = biological target: human kinome (Homo sapiens, UniProt P53355); details: DAPK1; 100 nM; read-out: Percent Control
How it was run: as §1

human kinome [11] = biological target: human kinome (Homo sapiens, UniProt Q9BQI3); details: EIF2AK1; 100 nM; read-out: Percent Control
How it was run: as §1

human kinome [12] = biological target: human kinome (Homo sapiens, UniProt P54753); details: EPHB3; 100 nM; read-out: Percent Control
How it was run: as §1

human kinome [13] = biological target: human kinome (Homo sapiens, UniProt Q14289); details: read-out: Percent Control
human kinome (Homo sapiens, UniProt Q14289), sequence (Q14289 whole entry): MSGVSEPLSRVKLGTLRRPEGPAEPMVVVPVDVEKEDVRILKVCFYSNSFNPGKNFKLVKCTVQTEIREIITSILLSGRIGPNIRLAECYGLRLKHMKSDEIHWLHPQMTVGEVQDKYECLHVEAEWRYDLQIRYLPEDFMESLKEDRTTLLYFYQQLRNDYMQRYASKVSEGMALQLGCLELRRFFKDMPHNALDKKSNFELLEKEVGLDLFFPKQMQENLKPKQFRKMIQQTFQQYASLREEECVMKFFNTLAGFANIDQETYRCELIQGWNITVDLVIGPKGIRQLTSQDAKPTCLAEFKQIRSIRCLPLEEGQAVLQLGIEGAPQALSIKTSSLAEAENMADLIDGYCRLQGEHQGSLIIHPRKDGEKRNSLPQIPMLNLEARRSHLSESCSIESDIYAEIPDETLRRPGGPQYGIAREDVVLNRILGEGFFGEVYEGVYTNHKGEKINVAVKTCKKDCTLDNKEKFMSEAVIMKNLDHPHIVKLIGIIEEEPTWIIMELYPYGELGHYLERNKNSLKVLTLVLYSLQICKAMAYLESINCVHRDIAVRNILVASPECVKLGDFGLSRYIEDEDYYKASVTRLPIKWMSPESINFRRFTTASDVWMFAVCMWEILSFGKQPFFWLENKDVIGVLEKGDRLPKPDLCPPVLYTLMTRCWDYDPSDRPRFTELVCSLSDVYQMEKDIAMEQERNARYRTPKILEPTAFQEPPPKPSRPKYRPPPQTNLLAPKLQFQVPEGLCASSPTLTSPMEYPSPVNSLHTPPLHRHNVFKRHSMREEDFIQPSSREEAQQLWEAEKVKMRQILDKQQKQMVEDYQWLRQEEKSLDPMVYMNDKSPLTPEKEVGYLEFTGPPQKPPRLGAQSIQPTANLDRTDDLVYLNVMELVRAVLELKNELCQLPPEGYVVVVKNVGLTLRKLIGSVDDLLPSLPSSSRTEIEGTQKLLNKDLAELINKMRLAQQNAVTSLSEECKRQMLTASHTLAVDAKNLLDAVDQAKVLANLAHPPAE
How it was run: as §1

human kinome [14] = biological target: human kinome (Homo sapiens, UniProt P07947); details: kinase YES (Entrez YES1); compound concentration 1000 nM; read-out: Percent Control
How it was run: as §1

human kinome [15] = biological target: human kinome (Homo sapiens, UniProt P17612); details: read-out: Percent Control
How it was run: as §1

human kinome [16] = biological target: human kinome (Homo sapiens, UniProt Q14164); details: IKK-epsilon (Entrez IKBKE); 100 nM; read-out: Percent Control
How it was run: as §1

human kinome [17] = biological target: human kinome (Homo sapiens, UniProt P22694); details: read-out: Percent Control
How it was run: as §1

human kinome [18] = biological target: human kinome (Homo sapiens, UniProt P04049); details: read-out: Percent Control
human kinome (Homo sapiens, UniProt P04049), sequence (P04049 whole entry): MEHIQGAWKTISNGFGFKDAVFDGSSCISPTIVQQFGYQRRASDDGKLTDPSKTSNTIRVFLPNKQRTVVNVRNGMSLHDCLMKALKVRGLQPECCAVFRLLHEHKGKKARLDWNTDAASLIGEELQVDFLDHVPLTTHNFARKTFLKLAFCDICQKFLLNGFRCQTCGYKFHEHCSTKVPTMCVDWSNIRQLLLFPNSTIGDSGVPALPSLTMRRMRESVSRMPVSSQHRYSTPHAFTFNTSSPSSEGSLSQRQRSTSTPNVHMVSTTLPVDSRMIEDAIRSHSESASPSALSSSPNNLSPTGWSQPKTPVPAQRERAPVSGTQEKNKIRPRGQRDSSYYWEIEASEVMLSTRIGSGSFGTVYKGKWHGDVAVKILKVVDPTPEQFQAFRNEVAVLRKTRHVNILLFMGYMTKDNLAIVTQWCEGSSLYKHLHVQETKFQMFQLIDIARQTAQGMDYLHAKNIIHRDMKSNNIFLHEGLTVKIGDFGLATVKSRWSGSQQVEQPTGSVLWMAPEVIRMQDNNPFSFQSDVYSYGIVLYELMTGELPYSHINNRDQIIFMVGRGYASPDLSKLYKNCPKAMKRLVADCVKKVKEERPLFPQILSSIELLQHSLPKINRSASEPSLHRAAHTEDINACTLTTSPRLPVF
How it was run: as §1

human kinome [19] = biological target: human kinome (Homo sapiens, UniProt P78368); details: CSNK1G2; 100 nM; read-out: Percent Control
How it was run: as §1

human kinome [20] = biological target: human kinome (Homo sapiens, UniProt Q00526); details: CDK3; 100 nM; read-out: Percent Control
How it was run: as §1

human kinome [21] = biological target: human kinome (Homo sapiens, UniProt Q86YV6); details: read-out: Percent Control
human kinome (Homo sapiens, UniProt Q86YV6), sequence (Q86YV6 whole entry): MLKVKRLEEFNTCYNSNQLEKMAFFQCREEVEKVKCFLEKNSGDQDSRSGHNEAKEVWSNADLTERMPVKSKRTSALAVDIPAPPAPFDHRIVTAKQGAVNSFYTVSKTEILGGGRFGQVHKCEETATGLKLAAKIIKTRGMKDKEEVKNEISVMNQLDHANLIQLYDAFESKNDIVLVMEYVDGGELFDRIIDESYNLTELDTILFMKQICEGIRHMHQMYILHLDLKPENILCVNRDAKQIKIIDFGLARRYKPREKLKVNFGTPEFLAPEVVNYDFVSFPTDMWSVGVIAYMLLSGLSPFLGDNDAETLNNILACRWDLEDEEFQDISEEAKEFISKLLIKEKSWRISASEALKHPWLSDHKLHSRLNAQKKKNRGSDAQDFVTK
How it was run: as §1

human kinome [22] = biological target: human kinome (Homo sapiens, UniProt Q9Y5S2); details: MRCKB (Entrez CDC42BPB); 100 nM; read-out: Percent Control
How it was run: as §1

human kinome [23] = biological target: human kinome (Homo sapiens, UniProt Q16584); details: MLK3 (Entrez MAP3K11); 100 nM; read-out: Percent Control
How it was run: as §1

human kinome [24] = biological target: human kinome (Homo sapiens, UniProt Q13237); details: read-out: Percent Control
human kinome (Homo sapiens, UniProt Q13237), sequence (Q13237 whole entry): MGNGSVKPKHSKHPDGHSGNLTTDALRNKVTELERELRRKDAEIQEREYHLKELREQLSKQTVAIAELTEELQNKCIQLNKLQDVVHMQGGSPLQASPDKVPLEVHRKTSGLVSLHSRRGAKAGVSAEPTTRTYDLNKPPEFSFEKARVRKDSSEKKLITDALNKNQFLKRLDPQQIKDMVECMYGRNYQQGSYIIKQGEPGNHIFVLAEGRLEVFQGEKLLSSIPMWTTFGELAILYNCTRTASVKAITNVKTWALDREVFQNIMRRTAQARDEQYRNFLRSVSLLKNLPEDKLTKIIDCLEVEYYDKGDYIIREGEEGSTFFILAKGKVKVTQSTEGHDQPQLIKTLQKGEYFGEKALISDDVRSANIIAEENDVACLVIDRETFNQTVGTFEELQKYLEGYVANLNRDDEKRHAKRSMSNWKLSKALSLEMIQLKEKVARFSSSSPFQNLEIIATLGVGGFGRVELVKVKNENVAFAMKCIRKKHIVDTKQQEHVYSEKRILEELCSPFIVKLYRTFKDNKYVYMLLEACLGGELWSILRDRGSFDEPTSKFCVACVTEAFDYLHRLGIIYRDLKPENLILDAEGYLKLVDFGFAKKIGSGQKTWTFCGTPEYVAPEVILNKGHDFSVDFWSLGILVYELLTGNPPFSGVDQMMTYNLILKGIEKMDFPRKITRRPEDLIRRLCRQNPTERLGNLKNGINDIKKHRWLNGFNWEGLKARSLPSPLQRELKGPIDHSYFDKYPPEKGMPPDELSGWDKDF
How it was run: as §1

human kinome [25] = biological target: human kinome (Homo sapiens, UniProt P24723); details: read-out: Percent Control
human kinome (Homo sapiens, UniProt P24723), sequence (P24723 whole entry): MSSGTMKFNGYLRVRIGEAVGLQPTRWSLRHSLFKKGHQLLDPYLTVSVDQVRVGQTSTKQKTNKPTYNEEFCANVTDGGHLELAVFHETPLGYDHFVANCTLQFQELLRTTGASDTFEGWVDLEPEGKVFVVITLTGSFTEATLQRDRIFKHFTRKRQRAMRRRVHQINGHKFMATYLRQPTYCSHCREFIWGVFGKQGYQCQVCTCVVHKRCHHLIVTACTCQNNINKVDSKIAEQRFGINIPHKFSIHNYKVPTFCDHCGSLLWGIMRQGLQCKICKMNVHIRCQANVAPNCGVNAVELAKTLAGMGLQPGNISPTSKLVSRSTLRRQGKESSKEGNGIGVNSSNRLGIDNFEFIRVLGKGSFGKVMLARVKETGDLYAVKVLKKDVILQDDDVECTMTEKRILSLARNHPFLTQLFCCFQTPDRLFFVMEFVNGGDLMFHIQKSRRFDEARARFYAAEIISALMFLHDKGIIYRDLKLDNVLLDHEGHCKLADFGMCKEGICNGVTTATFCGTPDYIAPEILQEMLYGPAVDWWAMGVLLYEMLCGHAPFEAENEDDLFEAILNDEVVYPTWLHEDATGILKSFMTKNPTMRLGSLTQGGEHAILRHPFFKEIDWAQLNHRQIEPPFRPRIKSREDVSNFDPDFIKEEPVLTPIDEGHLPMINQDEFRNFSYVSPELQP
How it was run: as §1

human kinome [26] = biological target: human kinome (Homo sapiens, UniProt Q9BYP7); details: kinase WNK3 (Entrez WNK3); compound concentration 1000 nM; read-out: Percent Control
How it was run: as §1

human kinome [27] = biological target: human kinome (Homo sapiens, UniProt Q9NRP7); details: kinase STK36 (Entrez STK36); compound concentration 1000 nM; read-out: Percent Control
How it was run: as §1

human kinome [28] = biological target: human kinome (Homo sapiens, UniProt O94804); details: LOK (Entrez STK10); 100 nM; read-out: Percent Control
How it was run: as §1

human kinome [29] = biological target: human kinome (Homo sapiens, UniProt Q8IU85); details: CAMK1D; 100 nM; read-out: Percent Control
How it was run: as §1

human kinome [30] = biological target: human kinome (Homo sapiens, UniProt P25098); details: GRK2 (Entrez ADRBK1); 100 nM; read-out: Percent Control
How it was run: as §1

## COc1cc(F)ccc1-c1cc(Nc2cc(CS(C)(=N)=O)ccn2)ncc1F (stereo not drawn) [VIP152]
Human kinome [1]
  remaining binding at 0.1 µM: 100%
Human kinome [2]
  remaining binding at 1 µM: 80%
Human kinome [3]; PRKD2, 100 nM
  remaining binding at 0.1 µM: 90%
Human kinome [3]; kinase PRKD2 (Entrez PRKD2), compound concentration 1000 nM
  remaining binding at 1 µM: 88%
Human kinome [4]; PIP5K1C, 100 nM
  remaining binding at 0.1 µM: 60%
Human kinome [4]; kinase PIP5K1C (Entrez PIP5K1C), compound concentration 1000 nM
  remaining binding at 1 µM: 92%
Human kinome [5]
  remaining binding at 0.1 µM: 100%
Human kinome [6]
  remaining binding at 0.1 µM: 100%
Human kinome [7]
  remaining binding at 0.1 µM: 77%
Human kinome [8]
  remaining binding at 0.1 µM: 100%
Human kinome [9]
  remaining binding at 1 µM: 100%
Human kinome [10]
  remaining binding at 0.1 µM: 100%
Human kinome [11]
  remaining binding at 0.1 µM: 100%
Human kinome [12]
  remaining binding at 0.1 µM: 100%
Human kinome [13]; PYK2 (Entrez PTK2B), 100 nM
  remaining binding at 0.1 µM: 100%
Human kinome [13]; kinase PYK2 (Entrez PTK2B), compound concentration 1000 nM
  remaining binding at 1 µM: 90%
Human kinome [14]
  remaining binding at 1 µM: 86%
Human kinome [15]; PKAC-alpha (Entrez PRKACA), 100 nM
  remaining binding at 0.1 µM: 97%
Human kinome [15]; kinase PKAC-alpha (Entrez PRKACA), compound concentration 1000 nM
  remaining binding at 1 µM: 100%
Human kinome [16]
  remaining binding at 0.1 µM: 100%
Human kinome [17]; PKAC-beta (Entrez PRKACB), 100 nM
  remaining binding at 0.1 µM: 100%
Human kinome [17]; kinase PKAC-beta (Entrez PRKACB), compound concentration 1000 nM
  remaining binding at 1 µM: 94%
Human kinome [18]; RAF1, 100 nM
  remaining binding at 0.1 µM: 100%
Human kinome [18]; kinase RAF1 (Entrez RAF1), compound concentration 1000 nM
  remaining binding at 1 µM: 96%
Human kinome [19]
  remaining binding at 0.1 µM: 100%
Human kinome [20]
  remaining binding at 0.1 µM: 100%
Human kinome [21]; MYLK4, 100 nM
  remaining binding at 0.1 µM: 100%
Human kinome [21]; kinase MYLK4 (Entrez MYLK4), compound concentration 1000 nM
  remaining binding at 1 µM: 89%
Human kinome [22]
  remaining binding at 0.1 µM: 100%
Human kinome [23]
  remaining binding at 0.1 µM: 100%
Human kinome [24]; PRKG2, 100 nM
  remaining binding at 0.1 µM: 100%
Human kinome [24]; kinase PRKG2 (Entrez PRKG2), compound concentration 1000 nM
  remaining binding at 1 µM: 100%
Human kinome [25]; PRKCH, 100 nM
  remaining binding at 0.1 µM: 100%
Human kinome [25]; kinase PRKCH (Entrez PRKCH), compound concentration 1000 nM
  remaining binding at 1 µM: 94%
Human kinome [26]
  remaining binding at 1 µM: 92%
Human kinome [27]
  remaining binding at 1 µM: 84%
Human kinome [28]
  remaining binding at 0.1 µM: 95%
Human kinome [29]
  remaining binding at 0.1 µM: 100%
Human kinome [30]
  remaining binding at 0.1 µM: 100%

From paper PMC9898036, “VIP152 is a selective CDK9 inhibitor with pre-clinical in vitro and in vivo efficacy in chronic lymphocytic leukemia” (Leukemia, 2022)
